The results in this text go back to patent US10894775B2, “Piperidine derivatives as liver X receptor beta agonists, compositions, and their use” (Merck Sharp & Dohme Corp., priority 2016, dated 2021).

Molecules are shown by their SMILES. pEC50: −log10 of the molar value. Like-named read-outs stand apart in the source and are kept apart here.

The target in experiment [1] is T1, glutathione-S-transferase (GST) tagged LXRbeta LBD (ligand binding domain) (Homo sapiens, UniProt P55055).
T1 construct: purchased Invitrogen pv4658.pps
T1 sequence (P55055 222-460 limits assumed): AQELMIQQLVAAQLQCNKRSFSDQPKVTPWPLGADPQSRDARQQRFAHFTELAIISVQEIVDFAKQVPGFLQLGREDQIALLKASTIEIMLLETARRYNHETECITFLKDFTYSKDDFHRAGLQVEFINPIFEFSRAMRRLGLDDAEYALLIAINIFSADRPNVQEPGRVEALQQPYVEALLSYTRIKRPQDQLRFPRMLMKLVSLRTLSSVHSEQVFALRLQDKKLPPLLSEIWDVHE
Put plainly: LanthaScreen TR-FRET Liver X Receptor Coactivator Assay, LXR beta. The class given is biochemical. The following applies: for Emax: read-out: LXR beta actiivty at max dose (%); for pEC50: read-out: LXR beta IP. Here is the method: (§1) While running the LanthaScreen™ TR-FRET Liver X Receptor Coactivator Assay, LXR alpha-LBD or LXR beta-LBD was added to ligand test compounds followed by addition of a mixture of a fluorescein-labelled coactivator peptide and terbium-conjugated anti-GST antibody. After an incubation period at room temperature, TR-FRET (time-resolved fluorescence resonance energy transfer) was measured using a filter-based instrument capable of TR-FRET, e.g. PerkinElmer Envision.

In experiment [2] the target is T2, glutathione-S-transferase (GST) tagged LXRalpha LBD (ligand binding domain) (Homo sapiens, UniProt Q13133).
T2 construct: purchased Invitrogen pv4655
T2 sequence (Q13133 209-447 limits assumed): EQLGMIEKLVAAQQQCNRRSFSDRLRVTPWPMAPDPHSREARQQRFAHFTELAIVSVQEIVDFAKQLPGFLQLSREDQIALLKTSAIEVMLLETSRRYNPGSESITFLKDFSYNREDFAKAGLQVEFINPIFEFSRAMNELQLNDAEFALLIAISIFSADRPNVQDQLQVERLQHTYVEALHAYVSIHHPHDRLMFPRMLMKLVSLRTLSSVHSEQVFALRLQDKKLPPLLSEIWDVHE
Put plainly: LanthaScreen TR-FRET Liver X Receptor Coactivator Assay, LXR alpha. It is filed as biochemical. The following applies: for Emax: read-out: LXR alpha actiivty at max dose (%); for pEC50: read-out: LXR alpha IP. On the procedure:
as §1

The mark [3] stands for this setting: efficacy (Emax) in relation to reference dual agonist T0901317.
[4] abbreviates: potency (Inflection Point) of compound-induced co-activator recruitment, TR-FRET.

For `CNC(=O)c1ccc(NCCCCC2CCN(C(=O)C(O)(c3cccc(OC)c3)C(F)(F)F)CC2)cc1Cl` (single isomer, unassigned) [Example 1-1, (R or S)-2-chloro-N-methyl-4-(4-(1-(3,3,3-trifluoro-2-hydroxy-2-(3-methoxyphenyl)propanoyl)piperidin-4-yl)butylamino)benzamide], the Emax in experiment [1] (setting [3]) was found to be 68%; in experiment [2], 17%. The pEC50 in experiment [1] (setting [4]) was 8.10. This molecule displayed an EC50 in experiment [2] (LXR alpha IP (nM), potency (Inflection Point) of compound-induced co-activator recruitment, TR-FRET) of 577 nM.

Turning to `NC(=O)c1ccc(NCCCCC2CCN(C(=O)C(O)(c3ccccc3)C(F)(F)F)CC2)cc1Cl` (single isomer, unassigned) [Example 1-2, (R or S)-2-chloro-4-(4-(1-(3,3,3-trifluoro-2-hydroxy-2-phenylpropanoyl)piperidin-4-yl)butylamino)benzamide], the Emax was 59% in experiment [1] (setting [3]) and 43% in experiment [2] (setting [3]). For the same molecule, the pEC50 in experiment [1] (setting [4]) was 7.82; in experiment [2] (setting [4]), 6.58.

For `CNC(=O)c1ccc(NCCCCC2CCN(C(=O)C(O)(c3ccccc3)C(F)(F)F)CC2)cc1Cl` (single isomer, unassigned) [Example 1-3, (R or S)-2-chloro-N-methyl-4-(4-(1-(3,3,3-trifluoro-2-hydroxy-2-phenylpropanoyl)piperidin-4-yl)butylamino)benzamide], the Emax in experiment [1] (setting [3]) is 75%; in experiment [2] (setting [3]), 38%. In addition, the pEC50 in experiment [1] (setting [4]) is 8.05; in experiment [2] (setting [4]), 6.32.

For the molecule `CNC(=O)c1ccc(NCCCCC2CCN(C(=O)C(O)(c3cccc(Cl)c3)C(F)(F)F)CC2)cc1Cl` (single isomer, unassigned) [Example 1-5, (R or S)-2-chloro-4-(4-(1-(2-(3-chlorophenyl)-3,3,3-trifluoro-2-hydroxypropanoyl)piperidin-4-yl)butylamino)-N-methylbenzamide], the Emax in experiment [1] (setting [3]) was 72%; in experiment [2] (setting [3]), 32%. In addition, the results for the pEC50 in experiment [1] (setting [4]) and in experiment [2] (setting [4]) were 8.10 and 6.62, respectively.

For `CNC(=O)c1ccc(NCCCCC2CCN(C(=O)C(O)(c3cccc(OC)c3)C(F)(F)F)CC2)cc1F` (single isomer, unassigned) [Example 1-6, (R or S)-2-fluoro-N-methyl-4-(4-(1-(3,3,3-trifluoro-2-hydroxy-2-(3-methoxyphenyl)propanoyl)piperidin-4-yl)butylamino)benzamide], the figures for the Emax in experiment [1] (setting [3]) and in experiment [2] (setting [3]) were 63% and 16%, respectively. The pEC50 was 6.99 in experiment [1] (setting [4]) and 5.48 in experiment [2] (setting [4]).

Regarding `CNC(=O)c1ccc(NCCCCC2CCN(C(=O)C(O)(c3cccc(OC4CC4)c3)C(F)(F)F)CC2)cc1Cl` (single isomer, unassigned) [Example 1-7, (S or R)-2-chloro-4-(4-(1-(2-(3-cyclopropoxyphenyl)-3,3,3-trifluoro-2-hydroxypropanoyl)piperidin-4-yl)butylamino)-N-methylbenzamide], the Emax was 56% in experiment [1] (setting [3]) and 19% in experiment [2] (setting [3]). The pEC50 is 7.85 in experiment [1] (setting [4]) and 5.50 in experiment [2] (setting [4]).

Turning to `CCc1cccc(C(O)(C(=O)N2CCC(CCCCNc3ccc(C(=O)NC)c(Cl)c3)CC2)C(F)(F)F)c1` (single isomer, unassigned) [Example 1-8, (S or R)-2-chloro-4-(4-(1-(2-(3-ethylphenyl)-3,3,3-trifluoro-2-hydroxypropanoyl)piperidin-4-yl)butylamino)-N-methylbenzamide], the Emax in experiment [1] (setting [3]) amounted to 52%; in experiment [2] (setting [3]), 12%. Also, the pEC50 in experiment [1] (setting [4]) is 8.40. Moreover, in experiment [2] (setting [4]), the “LXR alpha IP (nM)” value is on record as “No IP”.

In the case of `CNC(=O)c1ccc(NCCCCC2CCN(C(=O)C(O)(c3cccc(OC(F)(F)F)c3)C(F)(F)F)CC2)cc1Cl` (single isomer, unassigned) [Example 1-9, (S or R)-2-chloro-N-methyl-4-(4-(1-(3,3,3-trifluoro-2-hydroxy-2-(3-(trifluoromethoxy)phenyl)propanoyl)piperidin-4-yl)butylamino)benzamide], the Emax in experiment [1] (setting [3]) was 62%; in experiment [2] (setting [3]) it was 13%. The pEC50 in experiment [1] (setting [4]) was 7.77. In experiment [2] (setting [4]), the “LXR alpha IP (nM)” value was “No IP”.

Regarding `CNC(=O)c1ccc(NCCCCC2CCN(C(=O)C(O)(c3cccc(OC(C)C)c3)C(F)(F)F)CC2)cc1Cl` (single isomer, unassigned) [Example 1-10, (S or R)-2-chloro-N-methyl-4-(4-(1-(3,3,3-trifluoro-2-hydroxy-2-(3-isopropoxyphenyl)propanoyl)piperidin-4-yl)butylamino)benzamide], the Emax in experiment [1] (setting [3]) stood at 68%; in experiment [2] (setting [3]), 19%. In addition, the pEC50 is 7.85 in experiment [1] (setting [4]) and 5.68 in experiment [2] (setting [4]).

On to `CNC(=O)c1ccc(NCCCCC2CCN(C(=O)C(O)(c3cc(Cl)cc(Cl)c3)C(F)(F)F)CC2)cc1Cl` (single isomer, unassigned) [Example 1-11, (R or S)-2-chloro-4-(4-(1-(2-(3,5-dichlorophenyl)-3,3,3-trifluoro-2-hydroxypropanoyl)piperidin-4-yl)butylamino)-N-methylbenzamide], for which the Emax in experiment [1] (setting [3]) was found to be 29%; in experiment [2] (setting [3]), 0%. Also, the pEC50 in experiment [1] (setting [4]) is 8.52. Besides, in experiment [2] (setting [4]), the “LXR alpha IP (nM)” value was “No IP”.

As for `CN(C)C(=O)c1ccc(NCCCCC2CCN(C(=O)C(O)(c3ccccc3)C(F)(F)F)CC2)cc1Cl` (single isomer, unassigned) [Example 1-15, (S or R)-2-chloro-N,N-dimethyl-4-(4-(1-(3,3,3-trifluoro-2-hydroxy-2-phenylpropanoyl)piperidin-4-yl)butylamino)benzamide], the Emax in experiment [1] (setting [3]) turned out to be 72%; in experiment [2] (setting [3]), 43%. For the same molecule, the pEC50 is 8.52 in experiment [1] (setting [4]) and 6.83 in experiment [2] (setting [4]).

Turning to `CN(C)C(=O)c1ccc(N(C)CCCC2CCN(C(=O)C(O)(c3ccccc3)C(F)(F)F)CC2)cc1Cl` (single isomer, unassigned) [Example 3-1, (S or R)-2-chloro-N,N-dimethyl-4-(methyl(3-(1-(3,3,3-trifluoro-2-hydroxy-2-phenylpropanoyl)piperidin-4-yl)propyl)amino)benzamide], in experiment [1] (LXR beta IP (nM), potency (Inflection Point) of compound-induced co-activator recruitment, TR-FRET), the EC50 was found to be 47 nM. The Emax turned out to be 109% in experiment [1] and 16% in experiment [2] (setting [3]). For the same molecule, the pEC50 in experiment [2] (setting [4]) is 5.94.

For `COc1cccc([C@@](O)(C(=O)N2CCC(CCC[C@H](C)Nc3ccc(C(=O)N(C)C)c(Cl)c3)CC2)C(F)(F)F)c1` (single isomer, unassigned) [Example 4-1, 2-chloro-N,N-dimethyl-4-((S or R)-5-(1-((R or S)-3,3,3-trifluoro-2-hydroxy-2-(3-methoxyphenyl)propanoyl)piperidin-4-yl)pentan-2-ylamino)benzamide], the values for the Emax in experiment [1] (setting [3]) and in experiment [2] (setting [3]) were 71% and 22%, respectively. Also, the pEC50 in experiment [1] (setting [4]) is 7.89; in experiment [2] (setting [4]), 6.13.

Take `CC(CCCC1CCN(C(=O)[C@](O)(c2cccc(Cl)c2)C(F)(F)F)CC1)Nc1ccc(C(=O)N(C)C)c(Cl)c1` (single isomer, unassigned) [Example 4-2, 2-chloro-4-((S or R)-5-(1-((R or S)-2-(3-chlorophenyl)-3,3,3-trifluoro-2-hydroxypropanoyl)piperidin-4-yl)pentan-2-ylamino)-N,N-dimethylbenzamide]: the Emax in experiment [1] (setting [3]) stood at 84%; in experiment [2] (setting [3]) it was 37%. Further, the pEC50 in experiment [1] (setting [4]) is 8.15; in experiment [2] (setting [4]), 6.42.

On to `CC(CCCC1CCN(C(=O)[C@](O)(c2ccccc2)C(F)(F)F)CC1)Nc1ccc(C(=O)N(C)C)c(Cl)c1` (single isomer, unassigned) [Example 4-3, 2-chloro-N,N-dimethyl-4-((S or R)-5-(1-((R or S)-3,3,3-trifluoro-2-hydroxy-2-phenylpropanoyl)piperidin-4-yl)pentan-2-ylamino)benzamide], for which, in experiment [1] (setting [3]), the Emax worked out at 79%. In addition, the figures for the pEC50 in experiment [1] (setting [4]) and in experiment [2] (setting [4]) were 7.82 and 6.19, respectively. The “LXR alpha actiivty at max dose (%)” value in experiment [2] (setting [3]) came to 35%.

With `CC(CCCC1CCN(C(=O)[C@](O)(c2ccccc2)C(F)(F)F)CC1)Nc1ccc(C(=O)N(C)C)c(Cl)c1` (single isomer, unassigned) [Example 4-4, 2-chloro-N,N-dimethyl-4-((R or S)-5-(1-((R or S)-3,3,3-trifluoro-2-hydroxy-2-phenylpropanoyl)piperidin-4-yl)pentan-2-ylamino)benzamide], the “LXR beta actiivty at max dose (%)” value in experiment [1] (setting [3]) is 59%. In addition, the pEC50 in experiment [1] (setting [4]) is 6.49. In addition, in experiment [2] (setting [3]), the “LXR alpha actiivty at max dose (%)” value was 7%. For the same molecule, the “LXR alpha IP (nM)” value in experiment [2] (setting [4]) is “No IP”.
